Test results reported in patent US10709676B2 (GENEHEAL BIOTECHNOLOGY CO., LTD., priority 2016, dated 2020).

Biological target: PAICS (Homo sapiens, UniProt P22234)
Details: can reach; biochemical enzyme activity and cell biology experiments

Chain of PAICS (P22234 whole entry): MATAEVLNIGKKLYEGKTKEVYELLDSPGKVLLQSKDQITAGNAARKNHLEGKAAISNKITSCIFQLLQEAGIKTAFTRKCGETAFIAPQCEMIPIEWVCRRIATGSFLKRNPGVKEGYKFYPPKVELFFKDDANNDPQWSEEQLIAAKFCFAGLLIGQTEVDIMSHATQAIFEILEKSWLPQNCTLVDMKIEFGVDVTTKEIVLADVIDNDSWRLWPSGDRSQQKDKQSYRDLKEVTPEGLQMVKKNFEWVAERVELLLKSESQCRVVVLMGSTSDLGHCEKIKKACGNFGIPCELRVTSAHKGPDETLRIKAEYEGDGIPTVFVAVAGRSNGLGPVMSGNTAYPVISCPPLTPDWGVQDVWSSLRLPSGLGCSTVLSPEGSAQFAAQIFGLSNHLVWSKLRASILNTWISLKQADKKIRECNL

## NCCCNCCCCNCCCN [spermine, Spermine]
  inhibition ratio against SAICAR accumulation: 71.1%
